Measured values taken from PubChem BioAssay (NCI).
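Test compounds were applied to cells in 96-well plates for 48 hours at 5 doses. GI50 marks 50% less growth. At the TGI there is no net growth.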

Assays:
Test in all cases: inhibition of tumour cell growth, NCI panel, 48 h
786-0 renal = test system: 786-0 renal
A498 renal = test system: A498 renal
A549 NSCLC = test system: A549 NSCLC
ACHN renal = test system: ACHN renal
BT-549 breast = test system: BT-549 breast
CAKI-1 renal = test system: CAKI-1 renal
CCRF-CEM leukemia = test system: CCRF-CEM leukemia
COLO 205 colon = test system: COLO 205 colon
DU-145 prostate = test system: DU-145 prostate
EKVX NSCLC = test system: EKVX NSCLC
HCC-2998 colon = test system: HCC-2998 colon
HCT-116 colon = test system: HCT-116 colon
HCT-15 colon = test system: HCT-15 colon
HL-60(TB) leukemia = test system: HL-60(TB) leukemia
HOP-62 NSCLC = test system: HOP-62 NSCLC
HOP-92 NSCLC = test system: HOP-92 NSCLC
HS 578T breast = test system: HS 578T breast
HT29 colon = test system: HT29 colon
IGROV1 ovarian = test system: IGROV1 ovarian
K-562 leukemia = test system: K-562 leukemia
KM12 colon = test system: KM12 colon
LOX IMVI melanoma = test system: LOX IMVI melanoma
M14 melanoma = test system: M14 melanoma
MALME-3M melanoma = test system: MALME-3M melanoma
MCF7 breast = test system: MCF7 breast
MDA-MB-231 breast = test system: MDA-MB-231 breast
MDA-MB-435 = test system: MDA-MB-435
MDA-N = test system: MDA-N
MOLT-4 leukemia = test system: MOLT-4 leukemia
NCI-H226 lung = test system: NCI-H226 lung
NCI-H23 lung = test system: NCI-H23 lung
NCI-H460 lung = test system: NCI-H460 lung
NCI-H522 lung = test system: NCI-H522 lung
NCI/ADR-RES ovarian = test system: NCI/ADR-RES ovarian
OVCAR-3 ovarian = test system: OVCAR-3 ovarian
OVCAR-4 ovarian = test system: OVCAR-4 ovarian
OVCAR-5 ovarian = test system: OVCAR-5 ovarian
OVCAR-8 ovarian = test system: OVCAR-8 ovarian
PC-3 prostate = test system: PC-3 prostate
RPMI-8226 leukemia = test system: RPMI-8226 leukemia
RXF 393 renal = test system: RXF 393 renal
SF-268 CNS = test system: SF-268 CNS
SF-295 CNS = test system: SF-295 CNS
SK-MEL-2 melanoma = test system: SK-MEL-2 melanoma
SK-MEL-28 melanoma = test system: SK-MEL-28 melanoma
SK-MEL-5 melanoma = test system: SK-MEL-5 melanoma
SK-OV-3 ovarian = test system: SK-OV-3 ovarian
SN12C renal = test system: SN12C renal
SNB-19 CNS = test system: SNB-19 CNS
SNB-75 CNS = test system: SNB-75 CNS
SR leukemia = test system: SR leukemia
SW-620 colon = test system: SW-620 colon
T-47D breast = test system: T-47D breast
TK-10 renal = test system: TK-10 renal
U251 CNS = test system: U251 CNS
UACC-257 melanoma = test system: UACC-257 melanoma
UACC-62 melanoma = test system: UACC-62 melanoma
UO-31 renal = test system: UO-31 renal
SF-539 CNS = test system: SF-539 CNS

CCN(CC)C(=S)SS(=O)(=O)c1ccc(N)cc1
TGI (786-0 renal): > 100 µM
TGI (A498 renal): > 94.2 µM
TGI (A549 NSCLC): > 100 µM
TGI (ACHN renal): > 100 µM
GI50 (BT-549 breast): > 100 µM
TGI (BT-549 breast): > 100 µM
TGI (CAKI-1 renal): > 90.2 µM
GI50 (CCRF-CEM leukemia): > 100 µM
TGI (CCRF-CEM leukemia): > 100 µM
GI50 (COLO 205 colon): > 100 µM
TGI (COLO 205 colon): > 100 µM
GI50 (DU-145 prostate): > 100 µM
TGI (DU-145 prostate): > 100 µM
TGI (EKVX NSCLC): > 100 µM
TGI (HCC-2998 colon): > 100 µM
GI50 (HCT-116 colon): > 100 µM
TGI (HCT-116 colon): > 100 µM
GI50 (HCT-15 colon): > 100 µM
TGI (HCT-15 colon): > 100 µM
GI50 (HL-60(TB) leukemia): > 100 µM
TGI (HL-60(TB) leukemia): > 100 µM
TGI (HOP-62 NSCLC): > 100 µM
TGI (HOP-92 NSCLC): > 100 µM
TGI (HS 578T breast): > 100 µM
TGI (HT29 colon): > 100 µM
TGI (IGROV1 ovarian): > 100 µM
TGI (K-562 leukemia): > 100 µM
TGI (KM12 colon): > 100 µM
GI50 (LOX IMVI melanoma): > 100 µM
TGI (LOX IMVI melanoma): > 100 µM
TGI (M14 melanoma): > 100 µM
GI50 (MALME-3M melanoma): 46.2 µM
TGI (MALME-3M melanoma): > 100 µM
TGI (MCF7 breast): > 100 µM
GI50 (MDA-MB-231 breast): > 100 µM
TGI (MDA-MB-231 breast): > 100 µM
GI50 (MDA-MB-435): > 100 µM
TGI (MDA-MB-435): > 100 µM
TGI (MDA-N): > 100 µM
TGI (MOLT-4 leukemia): > 100 µM
GI50 (NCI-H226 lung): 99.2 µM
TGI (NCI-H226 lung): > 100 µM
TGI (NCI-H23 lung): > 100 µM
TGI (NCI-H460 lung): > 100 µM
TGI (NCI-H522 lung): > 26.6 µM
GI50 (NCI/ADR-RES ovarian): > 100 µM
TGI (NCI/ADR-RES ovarian): > 100 µM
GI50 (OVCAR-3 ovarian): > 100 µM
TGI (OVCAR-3 ovarian): > 100 µM
GI50 (OVCAR-4 ovarian): > 100 µM
TGI (OVCAR-4 ovarian): > 100 µM
TGI (OVCAR-5 ovarian): > 100 µM
GI50 (OVCAR-8 ovarian): > 100 µM
TGI (OVCAR-8 ovarian): > 100 µM
GI50 (PC-3 prostate): 90.8 µM
TGI (PC-3 prostate): > 100 µM
TGI (RPMI-8226 leukemia): > 100 µM
TGI (RXF 393 renal): > 100 µM
GI50 (SF-268 CNS): > 100 µM
TGI (SF-268 CNS): > 100 µM
GI50 (SF-295 CNS): > 100 µM
TGI (SF-295 CNS): > 100 µM
TGI (SK-MEL-2 melanoma): > 100 µM
GI50 (SK-MEL-28 melanoma): > 100 µM
TGI (SK-MEL-28 melanoma): > 100 µM
TGI (SK-MEL-5 melanoma): > 100 µM
TGI (SK-OV-3 ovarian): > 100 µM
GI50 (SN12C renal): > 100 µM
TGI (SN12C renal): > 100 µM
TGI (SNB-19 CNS): > 100 µM
GI50 (SNB-75 CNS): 48.5 µM
TGI (SNB-75 CNS): > 100 µM
TGI (SR leukemia): > 100 µM
GI50 (SW-620 colon): > 100 µM
TGI (SW-620 colon): > 100 µM
TGI (T-47D breast): > 100 µM
GI50 (TK-10 renal): > 100 µM
TGI (TK-10 renal): > 100 µM
GI50 (U251 CNS): > 100 µM
TGI (U251 CNS): > 100 µM
GI50 (UACC-257 melanoma): > 100 µM
TGI (UACC-257 melanoma): > 100 µM
TGI (UACC-62 melanoma): > 100 µM
TGI (UO-31 renal): > 100 µM

Cc1ccc(S(=O)(=O)C2=C([Si](C)(C)C)C3CC2[C@@H]2C4C=CC(CC4)[C@H]32)cc1 (some centres undefined)
TGI (786-0 renal): > 100 µM
TGI (A498 renal): > 100 µM
TGI (A549 NSCLC): > 100 µM
TGI (ACHN renal): > 100 µM
TGI (BT-549 breast): > 100 µM
TGI (CAKI-1 renal): > 100 µM
TGI (COLO 205 colon): > 100 µM
TGI (DU-145 prostate): > 100 µM
TGI (EKVX NSCLC): > 100 µM
TGI (HCC-2998 colon): > 100 µM
TGI (HCT-116 colon): > 100 µM
TGI (HCT-15 colon): > 100 µM
TGI (HL-60(TB) leukemia): > 100 µM
TGI (HOP-62 NSCLC): > 100 µM
TGI (HOP-92 NSCLC): > 100 µM
TGI (HS 578T breast): > 100 µM
TGI (HT29 colon): > 100 µM
TGI (IGROV1 ovarian): > 100 µM
TGI (K-562 leukemia): > 100 µM
TGI (KM12 colon): > 100 µM
TGI (LOX IMVI melanoma): > 100 µM
TGI (M14 melanoma): > 100 µM
TGI (MALME-3M melanoma): > 100 µM
TGI (MCF7 breast): > 100 µM
TGI (MDA-MB-231 breast): > 100 µM
TGI (MDA-MB-435): > 100 µM
TGI (MDA-N): > 100 µM
TGI (MOLT-4 leukemia): > 100 µM
TGI (NCI-H226 lung): > 100 µM
TGI (NCI-H460 lung): > 100 µM
TGI (NCI-H522 lung): > 100 µM
TGI (NCI/ADR-RES ovarian): > 100 µM
TGI (OVCAR-3 ovarian): > 100 µM
TGI (OVCAR-4 ovarian): > 100 µM
TGI (OVCAR-5 ovarian): > 100 µM
TGI (OVCAR-8 ovarian): > 100 µM
TGI (PC-3 prostate): > 100 µM
TGI (RXF 393 renal): > 100 µM
TGI (SF-268 CNS): > 100 µM
TGI (SF-295 CNS): > 100 µM
TGI (SF-539 CNS): 88 µM
TGI (SK-MEL-2 melanoma): 77.4 µM
TGI (SK-MEL-28 melanoma): > 100 µM
TGI (SK-MEL-5 melanoma): > 100 µM
TGI (SK-OV-3 ovarian): > 100 µM
TGI (SN12C renal): > 100 µM
TGI (SNB-19 CNS): 76.1 µM
TGI (SR leukemia): > 100 µM
TGI (SW-620 colon): > 100 µM
TGI (T-47D breast): > 100 µM
TGI (TK-10 renal): 99.2 µM
TGI (U251 CNS): > 100 µM
TGI (UACC-257 melanoma): > 100 µM
TGI (UACC-62 melanoma): > 100 µM
TGI (UO-31 renal): > 100 µM
